From patent US20120077828A1, “CHEMICAL COMPOUNDS” (priority 2010, published 2012) come the findings set out here.

The target of the experiment is T1, PERK (Homo sapiens, UniProt Q9NZJ5).
T1 construct: GST-PERK (536-1116) cytoplasmic domain was purchased from Invitrogen; purchased Invitrogen PV5106
T1 sequence (Q9NZJ5 536-1116): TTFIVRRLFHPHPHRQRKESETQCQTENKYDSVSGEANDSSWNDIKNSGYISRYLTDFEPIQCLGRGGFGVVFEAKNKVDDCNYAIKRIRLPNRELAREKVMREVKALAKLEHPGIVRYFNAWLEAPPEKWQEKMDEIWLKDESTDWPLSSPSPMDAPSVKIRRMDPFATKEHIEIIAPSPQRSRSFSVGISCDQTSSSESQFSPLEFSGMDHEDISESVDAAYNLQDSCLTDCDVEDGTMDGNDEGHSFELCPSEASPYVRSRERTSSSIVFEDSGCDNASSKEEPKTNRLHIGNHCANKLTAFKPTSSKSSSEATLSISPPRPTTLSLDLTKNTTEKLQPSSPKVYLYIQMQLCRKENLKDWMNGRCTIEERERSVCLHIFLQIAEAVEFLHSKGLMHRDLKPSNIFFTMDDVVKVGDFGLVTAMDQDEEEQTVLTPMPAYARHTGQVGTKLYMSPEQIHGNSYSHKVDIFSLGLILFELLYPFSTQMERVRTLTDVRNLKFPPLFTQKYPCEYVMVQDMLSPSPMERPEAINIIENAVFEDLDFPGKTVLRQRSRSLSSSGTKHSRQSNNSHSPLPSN
The experiment can be described thus: PKR-like Endoplasmic Reticulum Kinase (PERK) Assay (HTRF Format). Particulars: average, in at least one set of experimental runs; read-out: average pIC50 value against PERK (converted). Format: biochemical. Here is the method:
PKR-like Endoplasmic Reticulum Kinase (PERK) Assay (HTRF Format)
Source of substrate: elF2α: 6-His-Full-length human elF2α is purified from baculovirus expression in Sf9 insect cells. The elF2 protein is buffer exchanged by dialysis into PBS, chemically modified by NHS-LC-Biotin and then buffer exchanged by dialysis into 50 mm TRIS pH 7.2/250 mM NaCl/5 mM DTT. Protein is aliquoted and stored at −80° C.
Assays were performed by adding GST-PERK solution to assay plates containing compounds and pre-incubated for 30 minutes at room temperature. The reaction is initiated by the addition of ATP and EIF2α substrate solution. Quench solution is added following a one hour incubation at room temperature. The plates are covered for 2 hours at room temperature prior to determination of signal. The resulting signal is quantified on a Viewlux Reader (PerkinElmer). The APC Signal is normalized to the Europium signal by transforming the data through an APC/Eu calculation.
Compounds under analysis were dissolved in DMSO to 1.0 mM and serially diluted 1 to 3 with DMSO through eleven dilutions. 0.1 μl of each concentration was transferred to the corresponding well of an assay plate. This creates a final compound concentration range from 0.00017 to 10 μM.
The data for concentration response curves were plotted as % Inhibition calculated with the data reduction formula 100*(1−(U1−C2)/(C1−C2)) versus concentration of compound where U is the unknown value, C1 is the average control value obtained for 1% DMSO, and C2 is the average control value obtained for 0.1 M EDTA. Data were fitted with a curve described by:
where A is the minimum y, B is the maximum y concentration [M], D is the slope factor, and x is the log10 of the compound.
In the above data, pIC50 is defined as −log(IC50) where the IC50 value is expressed in molar units.
(In general: TR-FRET usually uses a lanthanide donor and a delayed reading to cut background.)
With `Cn1cc(-c2ccc3c(c2)CCN3C(=O)Cc2ccccc2)c2c(N)ncnc21` [Example 4, 7-methyl-5-[1-(phenylacetyl)-2,3-dihydro-1H-indol-5-yl]-7H-pyrrolo[2,3-d]pyrimidin-4-amine], the IC50 is not above 2.51 nM.

As for `Nc1nccc2scc(-c3ccc4c(c3)CCN4C(=O)Cc3cc(F)ccc3F)c12` [Example 6, 3-{1-[(2,5-difluorophenyl)acetyl]-2,3-dihydro-1H-indol-5-yl}thieno[3,2-c]pyridin-4-amine], the IC50 was not above 2.51 nM. For `Nc1ncc(-c2ccncc2)c2scc(-c3ccc4c(c3)CCN4C(=O)Cc3ccccc3)c12` [Example 9, 3-[1-(phenylacetyl)-2,3-dihydro-1H-indol-5-yl]-7-(4-pyridinyl)thieno[3,2-c]pyridin-4-amine], the IC50 is not above 1 nM.

In the case of `Nc1ncc(-c2cn[nH]c2)c2scc(-c3ccc4c(c3)CCN4C(=O)Cc3ccccc3)c12` [Example 13, 3-[1-(phenylacetyl)-2,3-dihydro-1H-indol-5-yl]-7-(1H-pyrazol-4-yl)thieno[3,2-c]pyridin-4-amine], the IC50 was not above 1 nM. Next, `Cn1cc(-c2cnc(N)c3c(-c4ccc5c(c4)CCN5C(=O)Cc4ccccc4)csc23)cn1` [Example 14, 7-(1-methyl-1H-pyrazol-4-yl)-3-[1-(phenylacetyl)-2,3-dihydro-1H-indol-5-yl]thieno[3,2-c]pyridin-4-amine]: not above 2.51 nM.

Take `Cc1cccc(CC(=O)N2CCc3cc(-c4nn(C)c5ncnc(N)c45)ccc32)c1` [Example 18, 1-methyl-3-(1[(3-methylphenyl)acetyl]-2,3-dihydro-1H-indol-5-yl)-1H-pyrazolo[3,4-d]pyrimidin-4-amine]: the IC50 is not above 1 nM.

For `Nc1ncc(C2=CCNCC2)c2scc(-c3ccc4c(c3)CCN4C(=O)Cc3ccccc3)c12` [Example 19, 3-[1-(phenylacetyl)-2,3-dihydro-1H-indol-5-yl]-7-(1,2,3,6-tetrahydro-4-pyridinyl)thieno[3,2-c]pyridin-4-amine], the IC50 was not above 2.51 nM. Consider `Nc1nccc2scc(-c3ccc4c(c3)CCN4C(=O)Cc3cccc(Cl)c3)c12` [Example 22, 3-{1-[(3-chlorophenyl)acetyl]-2,3-dihydro-1H-indol-5-yl}thieno[3,2-c]pyridin-4-amine], for which the IC50 was not above 2.51 nM. On to `COc1cccc(CC(=O)N2CCc3cc(-c4csc5ccnc(N)c45)ccc32)c1` [Example 23, 3-(1-{[3-(methyloxy)phenyl]acetyl}-2,3-dihydro-1H-indol-5-yl)thieno[3,2-c]pyridin-4-amine], for which the IC50 was not above 2.51 nM.

In the case of `Cc1ccc(C)c(CC(=O)N2CCc3cc(-c4nn(C)c5ncnc(N)c45)ccc32)c1` [Example 28, 3-{1-[(2,5-dimethylphenyl)acetyl]-2,3-dihydro-1H-indol-5-yl}-1-methyl-1H-pyrazolo[3,4-d]pyrimidin-4-amine], the IC50 was not above 0.316 nM. For `Cc1cc(F)cc(CC(=O)N2CCc3cc(-c4nn(C)c5ncnc(N)c45)ccc32)c1` [Example 29, 3-{1-[(3-fluoro-5-methylphenyl)acetyl]-2,3-dihydro-1H-indol-5-yl}-1-methyl-1H-pyrazolo[3,4-d]pyrimidin-4-amine] the value was not above 0.316 nM; for `Cc1cc(C)cc(CC(=O)N2CCc3cc(-c4nn(C)c5ncnc(N)c45)ccc32)c1` [Example 30, 3-{1-[(3,5-dimethylphenyl)acetyl]-2,3-dihydro-1H-indol-5-yl}-1-methyl-1H-pyrazolo[3,4-d]pyrimidin-4-amine], not above 1 nM; for `Nc1ncnc2scc(-c3ccc4c(c3)CCN4C(=O)Cc3cc(F)ccc3F)c12` [Example 31, 5-{1-[(2,5-difluorophenyl)acetyl]-2,3-dihydro-1H-indol-5-yl}thieno[2,3-d]pyrimidin-4-amine], not above 1 nM. Turning to `Cc1ccccc1CC(=O)N1CCc2cc(-c3cn(C)c4ncnc(N)c34)ccc21` [Example 33, 7-methyl-5-{1-[(2-methylphenyl)acetyl]-2,3-dihydro-1H-indol-5-yl}-7H-pyrrolo[2,3-d]pyrimidin-4-amine], the IC50 was not above 0.316 nM. Next, `Cn1cc(-c2ccc3c(c2)CCN3C(=O)Cc2ccccc2F)c2c(N)ncnc21` [Example 34, 5-{1-[(2-fluorophenyl)acetyl]-2,3-dihydro-1H-indol-5-yl}-7-methyl-7H-pyrrolo[2,3-d]pyrimidin-4-amine]: not above 0.316 nM; `Cc1cccc(CC(=O)N2CCc3cc(-c4cn(C)c5ncnc(N)c45)ccc32)c1` [Example 37, 7-methyl-5-{1-[(3-methylphenyl)acetyl]-2,3-dihydro-1H-indol-5-yl}-7H-pyrrolo[2,3-d]pyrimidin-4-amine]: not above 0.316 nM; `Cn1nc(-c2ccc3c(c2)CCN3C(=O)Cc2cccc(Cl)c2)c2c(N)ncnc21` [Example 42, 3-{1-[(3-chlorophenyl)acetyl]-2,3-dihydro-1H-indol-5-yl}-1-methyl-1H-pyrazolo[3,4-d]pyrimidin-4-amine]: not above 2.51 nM. Next, `Cc1cc(F)cc(CC(=O)N2CCc3cc(-c4cn(C)c5ncnc(N)c45)ccc32)c1` [Example 45, 5-{1-[(3-fluoro-5-methylphenyl)acetyl]-2,3-dihydro-1H-indol-5-yl}-7-methyl-7H-pyrrolo[2,3-d]pyrimidin-4-amine]: not above 0.316 nM. For `Cn1cc(-c2ccc3c(c2)CCN3C(=O)Cc2cccc(Cl)c2)c2c(N)ncnc21` [Example 46, 5-{1-[(3-chlorophenyl)acetyl]-2,3-dihydro-1H-indol-5-yl}-7-methyl-7H-pyrrolo[2,3-d]pyrimidin-4-amine] the value was not above 0.316 nM; for `Cn1cc(-c2ccc3c(c2)CCN3C(=O)Cc2cc(F)cc(Cl)c2)c2c(N)ncnc21` [Example 53, 5-{1-[(3-chloro-5-fluorophenyl)acetyl]-2,3-dihydro-1H-indol-5-yl}-7-methyl-7H-pyrrolo[2,3-d]pyrimidin-4-amine], not above 0.316 nM. For `Cn1nc(-c2ccc3c(c2)CCN3C(=O)Cc2cc(F)cc(F)c2F)c2c(N)ncnc21` [Example 55, 1-methyl-3-{1-[(2,3,5-trifluorophenyl)acetyl]-2,3-dihydro-1H-indol-5-yl}-1H-pyrazolo[3,4-d]pyrimidin-4-amine], the IC50 is not above 2.51 nM. For `Cn1cc(-c2ccc3c(c2)CCN3C(=O)Cc2cc(F)ccc2F)c2c(N)ncnc21` [Example 59, 5-{1-[(2,5-difluorophenyl)acetyl]-2,3-dihydro-1H-indol-5-yl}-7-methyl-7H-pyrrolo[2,3-d]pyrimidin-4-amine] the value was not above 1 nM; for `Cc1cccc(CC(=O)N2CCc3cc(-c4cn(C5CCNCC5)c5ncnc(N)c45)ccc32)c1` [Example 62, 5-{1-[(3-methylphenyl)acetyl]-2,3-dihydro-1H-indol-5-yl}-7-(4-piperidinyl)-7H-pyrrolo[2,3-d]pyrimidin-4-amine], not above 1 nM; for `Cc1cccc(CC(=O)N2CCc3cc(-c4csc5ncnc(N)c45)ccc32)c1` [Example 64, 5-{1-[(3-methylphenyl)acetyl]-2,3-dihydro-1H-indol-5-yl}thieno[2,3-d]pyrimidin-4-amine], not above 1 nM.

Consider `Cc1cccc(CC(=O)N2CCc3cc(-c4cn(C)c5ncnc(N)c45)ccc32)c1F` [Example 71, 5-{1-[(2-fluoro-3-methylphenyl)acetyl]-2,3-dihydro-1H-indol-5-yl}-7-methyl-7H-pyrrolo[2,3-d]pyrimidin-4-amine], for which the IC50 was not above 0.316 nM.

For the compound `Cc1ccc(F)c(CC(=O)N2CCc3cc(-c4cn(C)c5ncnc(N)c45)ccc32)c1` [Example 73, 5-{1-[(2-fluoro-5-methylphenyl)acetyl]-2,3-dihydro-1H-indol-5-yl}-7-methyl-7H-pyrrolo[2,3-d]pyrimidin-4-amine], the IC50 is not above 1 nM.

Consider `Cc1cccc(CC(=O)N2CCc3cc(-c4nn(C)c5ncnc(N)c45)ccc32)c1F` [Example 74, 3-{1-[(2-fluoro-3-methylphenyl)acetyl]-2,3-dihydro-1H-indol-5-yl}-1-methyl-1H-pyrazolo[3,4-d]pyrimidin-4-amine], for which the IC50 was not above 1 nM.
